US11351173B2, “Substituted pyrrolo[1,2-a]pyrimidines and their use in the treatment of medical disorders” (Bial—R&D Investments, S.A., priority 2014, dated 2022)
In brackets after ≈: the same amount, converted by molar mass.

How the values were obtained:
[1] = target: T1, glucocerebrosidase (Gcase) (Homo sapiens, UniProt P04062); test: Glucocerebrosidase (Gcase) activation assay, 4-methylumbelliferyl-beta-D-glucopyranoside substrate, fluorescence readout; assay type: biochemical; details: for activation at 0.1 µM / Percent Gcase Activation, 0.1 μM Test Compound: test compound at 0.1 μM; for activation at 0.1 µM: read-out: Percent Gcase Activation, 0.1 μM Test Compound; for activation at 1 µM / Percent Gcase Activation, 1 μM Test Compound: test compound at 1.0 μM; for activation at 1 µM: read-out: Percent Gcase Activation, 1 μM Test Compound
T1 construct: micellar solution containing 10 nM GCase and 100 nM saposin C
T1 sequence (P04062 40-536): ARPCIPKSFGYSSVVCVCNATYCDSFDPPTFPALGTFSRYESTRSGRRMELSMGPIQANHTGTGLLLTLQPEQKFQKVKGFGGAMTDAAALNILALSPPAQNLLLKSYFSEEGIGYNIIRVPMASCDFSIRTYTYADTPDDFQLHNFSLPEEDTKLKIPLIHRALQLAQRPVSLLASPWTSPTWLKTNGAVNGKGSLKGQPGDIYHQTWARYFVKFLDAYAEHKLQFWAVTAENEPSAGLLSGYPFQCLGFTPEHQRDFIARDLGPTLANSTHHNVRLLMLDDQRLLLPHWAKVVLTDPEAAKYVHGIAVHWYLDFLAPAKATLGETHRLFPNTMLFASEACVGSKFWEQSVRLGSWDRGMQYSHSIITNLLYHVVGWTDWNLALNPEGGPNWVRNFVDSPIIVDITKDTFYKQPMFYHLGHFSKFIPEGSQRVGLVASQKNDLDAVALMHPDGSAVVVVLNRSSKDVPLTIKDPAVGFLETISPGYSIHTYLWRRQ
Summary of the method: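 Test compounds are first screened at 1.0 and 0.1 μM final, then titrated in 8 points (3-fold from 5 μM) against human GCase with saposin C in phosphatidylserine/triton X-100 micelles at pH 4.7. Reactions run 15 min at room temperature, with fluorescence read at 365/440 nm.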

[2] = Compound solubility in water; details: water; for solubility: Compound Solubility in Water

Row | Compound | activation at 0.1 µM [1] [%] | activation at 1 µM [1] [%] | solubility [2] [µg/mL] | solubility ([2]; in water) [µg/mL] | Percent Gcase Activation, 1 μM Test Compound [1] | Percent Gcase Activation, 0.1 μM Test Compound [1] | Compound Solubility in Water [2] [µg/mL]
1 | CC[C@@H](NC(=O)c1ccn2c(C)cc(C)nc12)c1ccccc1 [III-124] | > 20 | > 60 | 1.2 (≈ 3.9 µM) | – | – | – | –
2 | COCc1cc(C2CC2)n2ccc(C(=O)NC3(C)CCOc4cc(F)c(F)cc43)c2n1 (stereo not shown) [III-270] | < 10 | 30 to 60 | – | 3 (≈ 7.02 µM) | – | – | –
3 | Cc1cc(C)n2ccc(C(=O)NC3Cc4ccccc4C3)c2n1 [III-215] | 10 to 20 | > 60 | – | 0.3 (≈ 0.982 µM) | – | – | –
4 | COCCCO[C@H]1CC[C@H](NC(=O)c2ccn3c(C)cc(C)nc23)CC1 [III-107] | < 10 | < 30 | 13.2 (≈ 36.7 µM) | – | – | – | –
5 | CC(C)c1ccnc2c(C(=O)N[C@H]3CCCc4ccccc43)ccn12 [III-162] | < 10 | > 60 | 1 (≈ 3 µM) | – | – | – | –
6 | Cc1cc(C)n2ccc(C(=O)NC3CCC4OCOC4C3)c2n1 (stereo not shown) [III-229] | < 10 | < 30 | – | 28.5 (≈ 90.4 µM) | – | – | –
7 | Cc1cc(C)n2ccc(C(=O)Nc3ccc(-c4cccs4)cn3)c2n1 [III-116] | > 20 | > 60 | 0.003 (≈ 0.00861 µM) | – | – | – | –
8 | Cc1cc(C)n2ccc(C(=O)N[C@@H]3CCCc4ccccc43)c2n1 [III-168] | > 20 | > 60 | 0.7 (≈ 2.19 µM) | – | – | – | –
9 | Cc1cc(C)n2ccc(C(=O)Nc3ccc(-c4ncco4)cc3)c2n1 [III-7] | > 20 | > 60 | 0.06 (≈ 0.181 µM) | – | – | – | –
10 | CCCCO[C@H]1CC[C@H](NC(=O)c2ccn3c(COC)cc(C(F)F)nc23)CC1 [III-34] | 10 to 20 | > 60 | 1.8 (≈ 4.4 µM) | – | – | – | –
11 | COCc1cc(C)n2ccc(C(=O)N[C@H]3CCCc4ccccc43)c2n1 [III-42] | > 20 | > 60 | 0.4 (≈ 1.14 µM) | – | – | – | –
12 | O=C(Nc1ccc(-c2cocn2)cc1)c1ccn2c(C(F)F)cc(C(F)F)nc12 [III-23] | > 20 | > 60 | 0.06 (≈ 0.148 µM) | – | – | – | –
13 | Cc1cc(C)n2ccc(C(=O)N[C@H]3CC[C@H](OCC(C)(C)C)CC3)c2n1 [III-93] | > 20 | > 60 | 6.2 (≈ 17.3 µM) | – | – | – | –
14 | Cc1cc(C)n2ccc(C(=O)NC3CCC4(CCCO4)CC3)c2n1 (stereo not shown) [III-141] | < 10 | < 30 | 17 (≈ 51.9 µM) | – | – | – | –
15 | Cc1cc(C)n2ccc(C(=O)NC3CC=C(c4cccs4)CC3)c2n1 (stereo not shown) [III-186] | > 20 | > 60 | 0.2 (≈ 0.569 µM) | – | – | – | –
16 | CCOC1(C)CCC(NC(=O)c2ccn3c(C)cc(C)nc23)CC1 (stereo not shown) [III-232] | < 10 | < 30 | – | 9.4 (≈ 28.5 µM) | – | – | –
17 | Cc1cc(C)n2ccc(C(=O)NC3CCOc4c(F)cccc43)c2n1 (stereo not shown) [III-224] | > 20 | > 60 | – | 1.5 (≈ 4.42 µM) | – | – | –
18 | Cc1cc(C)n2ccc(C(=O)NC34CCC(CC3)c3ccccc34)c2n1 [III-126] | > 20 | > 60 | 0.3 (≈ 0.868 µM) | – | – | – | –
19 | C#Cc1ccc(NC(=O)c2ccn3c(C)cc(C)nc23)cn1 [III-5] | < 10 | > 60 | 10.1 (≈ 34.8 µM) | – | – | – | –
20 | Cc1cc(C)n2ccc(C(=O)NC3CCC4(CCCCO4)C3)c2n1 (stereo not shown) [III-82] | 10 to 20 | – | 27.3 (≈ 83.4 µM) | – | +++ (Gcase activation greater than 60%) | – | –
21 | COC1CCC(NC(=O)c2ccn3c(C)cc(C)nc23)c2ccccc21 (stereo not shown) [III-212] | 10 to 20 | > 60 | – | 13.6 (≈ 38.9 µM) | – | – | –
22 | Cc1cc(C)n2ccc(C(=O)N[C@@H]3CCc4ccccc43)c2n1 [III-218] | > 20 | > 60 | – | 0.2 (≈ 0.655 µM) | – | – | –
23 | [2H]c1c(C([2H])([2H])[2H])nc2c(C(=O)Nc3ccc(-c4cocn4)cc3)cc([2H])n2c1C([2H])([2H])[2H] [III-158] | > 20 | > 60 | 0.07 (≈ 0.206 µM) | – | – | – | –
24 | COC1CCCCC1NC(=O)c1ccn2c(C)cc(C)nc12 (stereo not shown) [III-98] | < 10 | < 30 | 29.9 (≈ 99.2 µM) | – | – | – | –
25 | CCC(C)(NC(=O)c1ccn2c(C)cc(C)nc12)c1ccccc1 (stereo not shown) [III-287] | > 20 | > 60 | – | 1.6 (≈ 4.98 µM) | – | – | –

Row | Compound | activation at 0.1 µM [1] [%] | activation at 1 µM [1] [%] | solubility [2] [µg/mL] | solubility ([2]; in water) [µg/mL] | Percent Gcase Activation, 1 μM Test Compound [1] | Percent Gcase Activation, 0.1 μM Test Compound [1] | Compound Solubility in Water [2] [µg/mL]
26 | COc1cc(C)n2ccc(C(=O)Nc3ccc(-c4cocn4)cc3)c2n1 [III-52] | 10 to 20 | 30 to 60 | 0.1 (≈ 0.287 µM) | – | – | – | –
27 | CCOCCOC1CCC(NC(=O)c2ccn3c(C)cc(C)nc23)c2ccccc21 (stereo not shown) [III-231] | 10 to 20 | > 60 | – | 20.1 (≈ 49.3 µM) | – | – | –
28 | Cc1cc(C)n2ccc(C(=O)Nc3ccc(-c4ccncc4)cc3)c2n1 [III-277] | – | – | – | 0.01 (≈ 0.0292 µM) | – | * (less than 10% Gcase activation) | –
29 | CCCCCO[C@@H]1CC[C@H](NC(=O)c2ccn3c(C)cc(C)nc23)C1 [III-180] | – | – | – | – | +++ (Gcase activation greater than 60%) | * (less than 10% Gcase activation) | 10.4
30 | Cc1cc(C)n2ccc(C(=O)N[C@H]3CC[C@H](OC4CCCC4)CC3)c2n1 [III-132] | > 20 | > 60 | 5.8 (≈ 16.3 µM) | – | – | – | –
31 | Cc1cc(C)n2ccc(C(=O)N[C@H]3CCc4ccccc43)c2n1 [III-217] | > 20 | > 60 | – | 0.2 (≈ 0.655 µM) | – | – | –
32 | Cc1cc(C)n2ccc(C(=O)N[C@H]3CC[C@@H](Oc4cccs4)CC3)c2n1 [III-189] | > 20 | > 60 | 1 (≈ 2.71 µM) | – | – | – | –
33 | Cc1cc(C)n2ccc(C(=O)NC3CCCc4ccccc43)c2n1 (stereo not shown) [III-167] | > 20 | > 60 | 0.8 (≈ 2.5 µM) | – | – | – | –
34 | Cc1cc(C)n2ccc(C(=O)NC3(C)CCOc4cc(F)c(F)cc43)c2n1 (stereo not shown) [III-174] | > 20 | > 60 | 3.8 (≈ 10.2 µM) | – | – | – | –
35 | CCCO[C@H]1CC[C@H](NC(=O)c2ccn3c(C)cc(Cl)nc23)CC1 [III-74] | > 20 | > 60 | 10.8 (≈ 30.9 µM) | – | – | – | –
36 | COC1CC(NC(=O)c2ccn3c(C)cc(C)nc23)c2ccccc21 (stereo not shown) [III-285] | 10 to 20 | > 60 | – | 23.8 (≈ 71 µM) | – | – | –
37 | CCC(F)(F)CN1CCC(NC(=O)c2ccn3c(C)cc(C)nc23)C1 (stereo not shown) [III-205] | < 10 | < 30 | – | 21.3 (≈ 60.8 µM) | – | – | –
38 | Cc1cc(C)n2ccc(C(=O)NC3CCOc4ccc(-c5ncco5)cc43)c2n1 (stereo not shown) [III-207] | < 10 | 30 to 60 | – | 1 (≈ 2.57 µM) | – | – | –
39 | [2H]c1c(C([2H])([2H])[2H])nc2c(C(=O)NC(C)(C)c3ccc(F)cc3)cc([2H])n2c1C([2H])([2H])[2H] [III-160] | > 20 | > 60 | 1.6 (≈ 4.8 µM) | – | – | – | –
40 | Cc1cc(C)n2ccc(C(=O)Nc3ccc(C)c(-c4ncco4)c3)c2n1 [III-149] | > 20 | > 60 | < 1.5 | – | – | – | –
41 | COc1cc(NC(=O)c2ccn3c(C)cc(C)nc23)ccc1-c1cocn1 [III-108] | > 20 | > 60 | 0.2 (≈ 0.552 µM) | – | – | – | –
42 | CCCCCOc1ccc(NC(=O)c2ccn3c(C)cc(C)nc23)cc1 [III-273] | – | – | – | 0.005 (≈ 0.0142 µM) | +++ (Gcase activation greater than 60%) | *** (greater than 20% Gcase activation) | –
43 | C#Cc1ccc(C(C)(C)NC(=O)c2ccn3c(COC)cc(C)nc23)cc1 [III-62] | > 20 | > 60 | 2.7 (≈ 7.47 µM) | – | – | – | –
44 | Cc1cc(C)n2ccc(C(=O)Nc3ccc(-c4cccs4)nc3)c2n1 [III-275] | – | – | – | 0.01 (≈ 0.0287 µM) | +++ (Gcase activation greater than 60%) | *** (greater than 20% Gcase activation) | –
45 | Cc1cc(C)n2ccc(C(=O)Nc3ccc(-c4cnn(C)c4)cc3)c2n1 [III-278] | – | – | – | 0.06 (≈ 0.174 µM) | – | *** (greater than 20% Gcase activation) | –
46 | CO[C@H]1CC[C@H](NC(=O)c2ccn3c(C)cc(C)nc23)CC1 [III-89] | < 10 | < 30 | 23.9 (≈ 79.3 µM) | – | – | – | –
47 | Cc1cc(C)n2ccc(C(=O)Nc3ccc4c(c3)C(Oc3cccnc3)CC4)c2n1 (stereo not shown) [III-120] | > 20 | > 60 | 0.1 (≈ 0.251 µM) | – | – | – | –
48 | CCCCO[C@H]1CC[C@H](NC(=O)c2ccn3c(C(C)C)cc(COC)nc23)CC1 [III-37] | 10 to 20 | > 60 | 18 (≈ 44.8 µM) | – | – | – | –
49 | CCCCO[C@H]1CC[C@H](NC(=O)c2ccn3c(C)cc(C)nc23)CC1 [III-26] | > 20 | > 60 | 18.1 (≈ 52.7 µM) | – | – | – | –
